From EP4775574A1, “FURAN RING-CONTAINING COMPOUND, PHARMACEUTICAL COMPOSITION THEREOF, AND USE THEREOF” (Wuhan Xirui Pharmaceutical Technology Co., Ltd, priority 2023, dated 2025) come the findings set out here.

T1 sequence (Q9Y5Y9 whole entry): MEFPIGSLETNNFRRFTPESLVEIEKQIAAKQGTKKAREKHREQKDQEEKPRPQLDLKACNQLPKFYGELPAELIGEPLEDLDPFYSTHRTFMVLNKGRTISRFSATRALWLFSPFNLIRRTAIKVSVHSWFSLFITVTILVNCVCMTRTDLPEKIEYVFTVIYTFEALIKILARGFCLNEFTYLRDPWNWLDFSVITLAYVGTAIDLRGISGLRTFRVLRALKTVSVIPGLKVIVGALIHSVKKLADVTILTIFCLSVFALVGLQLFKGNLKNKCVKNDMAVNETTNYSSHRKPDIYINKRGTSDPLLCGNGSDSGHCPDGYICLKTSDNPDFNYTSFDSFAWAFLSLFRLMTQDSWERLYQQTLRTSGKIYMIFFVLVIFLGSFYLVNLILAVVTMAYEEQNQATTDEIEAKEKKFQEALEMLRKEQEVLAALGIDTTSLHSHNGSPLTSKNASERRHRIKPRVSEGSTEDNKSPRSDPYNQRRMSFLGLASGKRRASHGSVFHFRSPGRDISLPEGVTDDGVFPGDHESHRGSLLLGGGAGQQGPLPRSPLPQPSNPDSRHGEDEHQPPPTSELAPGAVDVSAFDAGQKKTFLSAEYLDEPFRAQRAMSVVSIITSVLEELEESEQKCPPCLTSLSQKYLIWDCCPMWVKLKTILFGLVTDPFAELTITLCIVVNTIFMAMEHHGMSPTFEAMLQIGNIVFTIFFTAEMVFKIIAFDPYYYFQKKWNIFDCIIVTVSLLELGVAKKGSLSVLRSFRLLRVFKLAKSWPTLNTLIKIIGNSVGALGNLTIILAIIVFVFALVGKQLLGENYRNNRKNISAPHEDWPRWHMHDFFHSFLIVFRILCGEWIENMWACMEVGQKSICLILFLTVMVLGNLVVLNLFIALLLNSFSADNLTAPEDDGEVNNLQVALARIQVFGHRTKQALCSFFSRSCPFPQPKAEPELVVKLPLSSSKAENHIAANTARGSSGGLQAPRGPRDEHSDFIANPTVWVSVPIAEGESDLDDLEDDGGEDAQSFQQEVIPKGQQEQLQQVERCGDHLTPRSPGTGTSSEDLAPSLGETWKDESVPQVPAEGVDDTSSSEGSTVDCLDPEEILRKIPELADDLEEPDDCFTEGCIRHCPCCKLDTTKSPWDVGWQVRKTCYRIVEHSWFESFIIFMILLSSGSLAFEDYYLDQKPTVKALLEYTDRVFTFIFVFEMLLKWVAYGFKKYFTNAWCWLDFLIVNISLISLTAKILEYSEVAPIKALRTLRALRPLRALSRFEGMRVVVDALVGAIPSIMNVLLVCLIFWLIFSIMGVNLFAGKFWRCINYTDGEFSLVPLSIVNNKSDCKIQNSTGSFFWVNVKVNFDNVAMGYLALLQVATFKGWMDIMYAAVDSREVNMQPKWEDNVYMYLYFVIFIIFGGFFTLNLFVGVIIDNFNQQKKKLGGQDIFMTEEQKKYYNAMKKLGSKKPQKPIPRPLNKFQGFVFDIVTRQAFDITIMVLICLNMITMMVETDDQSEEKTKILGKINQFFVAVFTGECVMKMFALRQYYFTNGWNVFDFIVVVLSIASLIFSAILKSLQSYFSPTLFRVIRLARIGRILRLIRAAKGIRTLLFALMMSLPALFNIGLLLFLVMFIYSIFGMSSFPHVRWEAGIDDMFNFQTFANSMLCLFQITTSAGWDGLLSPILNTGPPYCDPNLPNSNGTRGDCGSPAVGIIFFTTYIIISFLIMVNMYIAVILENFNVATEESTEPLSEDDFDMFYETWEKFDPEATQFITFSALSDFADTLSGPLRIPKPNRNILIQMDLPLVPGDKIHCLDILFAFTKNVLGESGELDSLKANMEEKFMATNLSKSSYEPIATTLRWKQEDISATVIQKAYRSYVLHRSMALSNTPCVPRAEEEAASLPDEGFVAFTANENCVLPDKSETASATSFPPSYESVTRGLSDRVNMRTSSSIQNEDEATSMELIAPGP

The first test has as its target T1, Nav1.8 sodium channel (Homo sapiens, UniProt Q9Y5Y9).
T1 construct: host or cells: CHO
In words: Blocking activity against sodium channel 1.8 (Nav1.8), whole-cell patch-clamp, inhibition rate. The format is cell-based.
Settings: not given
On the procedure: Experimental objective: The effects of the compounds on the current of the voltage-gated sodium channel (NaV) 1.8 subtype were detected by patch-clamp technique • 2. […] When the cells were detached from the bottom of the dish, about 5 mL of preheated complete medium at 37°C was added. The cell suspension was gently pipetted up and down to separate the aggregated cells. The cell suspension was transferred to a sterile centrifuge tube and centrifuged at 1000 rpm for 5 min to collect the cells. […] First, the voltage was stepped from -130 mV to -10 mV in 10 mV increments for 5 s, and then a 0 mV depolarizing pulse was applied to obtain the half-inactivation voltage (Vhalf). The resting state and half-inactivated state of the sodium current were detected by using a double-pulse protocol. First, the first depolarizing pulse (TP1) was applied to 0 mV for 50 ms to detect the sodium current in the resting state. Then, the voltage was adjusted to Vhalf and maintained for 5 s, followed by restoration of the voltage to -120 mV and maintenance for 20 ms, after which the second depolarizing pulse (TP2) was applied to 0 mV for 50 ms to detect the sodium current in the half-inactivated state. Finally, the voltage was restored to the clamping voltage of -120 mV. Data were repeatedly collected every […] to observe the effect of the drug on the peak values of sodium currents in the two different states. Experimental data were collected by the EPC 10 amplifier (HEKA) and stored in the PatchMaster (HEKA) software. • (2) During patch clamp operation, capillary glass tubes were first pulled into recording electrodes using a microelectrode puller, then the electrodes filled with intracellular solution were installed into the microelectrode holder. Under an inverted microscope, the micromanipulator was used to bring the recording electrode into contact with the cell, and negative pressure suction was applied to form a GΩ seal. At this time, fast capacitance compensation was performed, and then negative pressure was continuously applied to rupture the cell membrane and form the whole-cell recording mode. Finally, slow capacitance compensation was performed, and related parameters were recorded. Leak compensation was not applied. • (3) When the sodium current of whole-cell recording became stable, drug administration was started, and each drug concentration was applied for 5 min (or until the current became stable) before the next concentration was tested. The coverslip coated with cells was placed in the recording bath under an inverted microscope, and the blank control external solution and the test compound working solution were perfused through the recording bath in sequence from low concentration to high concentration by gravity, thereby acting on the cells, while a peristaltic pump was used for liquid exchange during recording. The current detected in the external solution without compounds for each cell was used as its own control group. Each concentration was independently tested twice. All electrophysiological experiments were conducted at room temperature.
First, the current after the effect of each drug concentration and the blank control current were normalized, then the inhibition rate corresponding to each drug concentration was calculated, that is, (1-Icompound /Icontrol), and the mean, standard deviation (SD), and standard error (SE) of the inhibition rate for each concentration were calculated, and the data were expressed as mean ± SE.
Consider `COc1c([C@H]2[C@H](C(=O)Nc3ccc(F)c(C(=O)NO)c3)O[C@@](C)(C(F)(F)F)[C@H]2C)ccc(F)c1F` [Example 9], for which the “Inhibition rate (%)” value came to 97.24%. For the compound `COc1c(C2C(C(=O)Nc3ccc(F)c(C(=N)NC#N)c3)OC(C)(C(F)(F)F)C2C)ccc(F)c1F` (centres unmarked) [Example 16], the “Inhibition rate (%)” value is 95.94%. Consider `COc1c([C@H]2[C@H](C(=O)Nc3cc(C(=N)NO)c(F)cc3F)O[C@@](C)(C(F)(F)F)[C@H]2C)ccc(F)c1F` [Example 14], for which the “Inhibition rate (%)” value is 84.01%. On to `COc1c([C@H]2[C@H](C(=O)Nc3cc[n+]([O-])c(C(=N)NO)c3)O[C@@](C)(C(F)(F)F)[C@H]2C)ccc(F)c1F` [Example 8], for which the “Inhibition rate (%)” value is listed as 90.96%.

In the case of `COc1c([C@H]2[C@H](C(=O)Nc3cc(F)c(F)c(C(=N)NO)c3)O[C@@](C)(C(F)(F)F)[C@H]2C)ccc(F)c1F` [Example 13], the “Inhibition rate (%)” value worked out at 89.85%.

Turning to `COc1c([C@H]2[C@H](C(=O)Nc3ccc(F)c(C(=N)NO)c3F)O[C@@](C)(C(F)(F)F)[C@H]2C)ccc(F)c1F` [Example 15], the “Inhibition rate (%)” value stood at 56.23%. `COc1c([C@H]2[C@H](C(=O)Nc3ccc(C(F)(F)F)c(C(=N)NO)c3)O[C@@](C)(C(F)(F)F)[C@H]2C)ccc(F)c1F` [Example 12]: the “Inhibition rate (%)” value worked out at 76.58%. Same read-out and setting: the figure for `CCONC(=O)c1cc(NC(=O)[C@@H]2O[C@@](C)(C(F)(F)F)[C@@H](C)[C@H]2c2ccc(F)c(F)c2OC)ccn1` [Example 2] is 76.36%. On to `COc1c([C@H]2[C@H](C(=O)Nc3ccnc(C(=O)NN)c3)O[C@@](C)(C(F)(F)F)[C@H]2C)ccc(F)c1F` [Example 5], for which the “Inhibition rate (%)” value is 50.04%.

Staying with this test, now noted: CHO cell line stably expressing Nav1.8; patch-clamp; test concentration not given.
With `CONC(=O)c1cc(NC(=O)[C@@H]2O[C@@](C)(C(F)(F)F)[C@@H](C)[C@H]2c2ccc(F)c(F)c2OC)ccn1` [Example 1], the “Inhibition rate (%)” value stood at 80.08%. On the same count and under the same terms, the figure for `CNNC(=O)c1cc(NC(=O)[C@@H]2O[C@@](C)(C(F)(F)F)[C@@H](C)[C@H]2c2ccc(F)c(F)c2OC)ccn1` [Example 6] is 71.63%.
